The values below come from patent US20130303566A1, “METHOD FOR TREATING MACULAR DEGENERATION” (DAVID W. HILL, priority 2012, published 2013).

The subject of one series is patient with AMD. The conditions noted are these: human, in vivo.
In another series the test system is patients with dry AMD. The conditions noted are these: 60 mcg PGE1 as alprostadil, intravenous infusion daily for 15 days, 15 patients with dry AMD; cited from earlier work.
In a further series the test system is damaged macular area. The arrangement: species or system human. The conditions noted are these: in vivo.

The structures appear in SMILES notation.

Procedure for patient with AMD: To test the hypothesis that vasodilators can successfully treat AMD, TriMix injectable blend was obtained containing, in 10 ml of water, 0.4 ml ethanol, 0.3 g papaverine hydrochloride, 0.02 g phentolamine mesylate and 200 mcg prostaglandin. E1 (PGE1 or “alprostadil”), with 0.01 ml benzyl alcohol. […] The following example explores the role of administering Trimix to a patient with AMD.
Initial doses were 1 mcg alprostadil, but were upped to 2 mcg of alprostadil for a period of time and then lowered to the original dose. Thus, on a daily basis, 0.85-0.10 mL of the above TriMix blend can be injected into the patient, delivering 1-2 mcg alprostadil, 0.1-0.2 mg phentolamine and 1.5-3.0 mg of papaverine.

As for `CCCCC[C@H](O)/C=C/[C@H]1[C@H](O)CC(=O)[C@@H]1CCCCCCC(=O)O` [PGE1, (11α,13E,15S)-11,15-Dihydroxy-9-osoprost-13-en-1-oic acid], the “tolerability of high doses” value with patient with AMD is listed as “without any problems”. In addition, in the series on patients with dry AMD, the trial outcome was “lack of statistically significant results”. Take `CC(=O)Oc1ccccc1C(=O)O` [aspirin]: the effect on vision entry in the series on damaged macular area is “cause the mask of the damaged macular area to appear colored, such as bright red, can cause misty vision”. On the same count and under the same terms, for `CC(=O)Nc1ccc(O)cc1` [acetaminophen] the value was “cause the mask of the damaged macular area to appear colored, such as bright red, can cause misty vision”; for `COc1ccc2cc([C@H](C)C(=O)O)ccc2c1` [naproxen sodium], “cause the mask of the damaged macular area to appear colored, such as bright red, can cause misty vision”.
